Measured values as given in US20230271923A1, “IMAGING AND TARGETING PROGRAMMED DEATH LIGAND-1 (PD-LI) EXPRESSION” (The Johns Hopkins University, priority 2020, published 2023).
pIC50, pKd: −log10 of the molar value. Where a SMILES comes first, the peptide text is derived from it. Bridges are numbered along the chain shown (N, C = ends). [ ]: non-standard residue; d: D form. The star is where a group is joined. Trp(1-CH2COOH) = N[C@@H](Cc1cn(CC(=O)O)c2ccccc12)C(=O)O; X1 = O=C(O)CN1CCN(CC(=O)O)CCN(Cc2ccc(NC(=S)*)cc2)CC1; Hyp = O=C(O)[C@@H]1C[C@@H](O)CN1; NMeNle = CCCC[C@H](NC)C(=O)O; NMeA = CN[C@@H](C)C(=O)O

Assays:
PD-L1 binding to PD-1 = PD-L1 binding to PD-1 (Homo sapiens, UniProt Q9NZQ7); experiment: competitive PD-1:PD-L1 inhibition assay (HTRF PD1/PD-L1 binding assay)
Procedure: To modify DK221 for radiolabeling, a bifunctional chelator, e.g., NCS-MP-NODA, was conjugated to the free lysine amine to generate DK222. The NODA chelator was used for radiofluorination to produce [^18F]DK222, as well as a non-radioactive analog [^19F]DK222. (FIG. 1A, FIG. 10 and FIG. 11). A competitive PD-1:PD-L1 inhibition assay was performed to characterize binding affinity of the peptide analogs to PD-L1. […] [^18F]Fluoride-radiolabeling of peptides and small molecules by aluminum fluoride (AlF) method is gaining attention due to the ease of synthesis and the potential to retain the hydrophilicity of the binding moiety. McBride et al., 2010; Kumar et al., 2018. The radiolabeled analog, [^18F]DK222 was synthesized by AlF method in good radiochemical yields (34.85±1.7%, n=62), in vitro stability, and moderate specific activity of 284±56 mCi/μmol (10.51±2.07 GBq/μmol, n=25). […] (FIG. 12, FIG. 13 and FIG. 14).

hPD-L1/CHO xenografts = conditions: in vivo
LOX-IMVI tumors = experiment: aPD-L1 mAb dosing studies, accessible PD-L1 levels by [^18F]DK222 uptake; format: in vivo, NSG mice; conditions: for reduction in [^18F]DK222 uptake in tumors vs vehicle: 24 hour before tracer, ex vivo
Procedure: To confirm the in vitro observations in vivo, NSG mice bearing LOX-IMVI tumors were treated with a single dose of 0.3 or 20 mg/kg of Atezolizumab, administered intravenously as a bolus, 24 hour before [^18F]DK222 injection (FIG. 5B, FIG. 5C and FIG. 5D). […] Importantly, there was a modest reduction in signal intensity when a low 0.3 mg/kg dose of Atezolizumab was used.
The aim of this experiment was to evaluate the potential of [^18F]DK222 to detect the heterogeneity in binding of different mAbs, thus proving in principle that it can be used to guide the choice between the multiple mAbs available for treatment. […] Separate groups of animals were injected with a single 1 mg/kg dose of (only) one of these mAbs, and after either 24 or 96 hours, each group was injected with [^18F]DK222, imaged, or sacrificed and the [^18F]DK222 signal was quantified (FIG. 6A). The difference in lower [^18F]DK222 signal, at 24 hours between any PD-L1 mAb vs Nivolumab constitutes the saturation binding of the PD-L1 mAb. On the other hand, the higher [^18F]DK222 signal at 96 hours versus that at 24 hours represents loss of the mAb from its binding site, making more PD-L1 accessible to [^18F]DK222. The experiment was repeated in two different tumor models: LOXIMVI and MDAMB231.
1.3.17 aPD-L1 mAb dosing studies. To determine the effect of antibody dose on accessible PD-L1 levels in the tumor, LOX-IMVI tumor-bearing mice were treated with a single intravenous bolus dose of Atezolizumab (0.3 or 20 mg/Kg) and 24 hours later mice were used for imaging (n=3-4) and biodistribution (n=6-8) studies.
Anti PD-1 antibody Nivolumab (1 mg/kg) and saline were used as controls. Mice treated for 24 h with therapeutic mAbs, or saline as a control, were injected with 200 μCi of [^18F]DK222 in 200 μL of saline intravenously, and PET images were acquired 1 hour after the injection of the radiotracer. Due to the many number of groups and mice involved, saline and Nivolumab-treated controls were included in every experiment, and data from multiple experiments were pooled. Study was repeated in MDAMB231 tumor-bearing mice with only biodistribution measurements.

[1] = circulating half-life; cited from earlier work
PD-L1 = PD-L1 (Homo sapiens, UniProt Q9NZQ7); conditions: cited from earlier work
[2] = tested on: PD-L1 levels in melanoma cells; experiment: effect of IFNγ treatment on PD-L1 levels by flow cytometry; format: cell-based, human
Procedure: First, the effect of adaptive immune response on the PD-L1 expression in melanoma cells was investigated by assessing changes in PD-L1 levels induced by IFNγ treatment. LOX-IMVI, A375, and MeWO melanoma cells treated with IFNγ were analyzed for changes in PD-L1 levels.
1.3.8 Detection of PD-L1 expression by flow cytometry. Cells were evaluated for PD-L1 surface expression by direct staining of 2×10^5 cells in 100 μL PBS with Cy5-Atezolizumab, for 30 min at 4° C. Cy5-Atezolizumab was prepared as described previously. Kumar et al., 2019. Cells were then washed and analyzed for mean fluorescence intensity (MFI) by flow cytometry. Adherent cells were detached using enzyme-free cell dissociation buffer (Thermo Fisher Scientific, Waltham, Mass.). 1.3.9 In vitro binding assays with [^18F]DK222. In vitro binding of [^18F]DK222 to hPD-L1 MDAMB231, MeWo, A375, Sum149, and CHO cells was determined by incubating 1×10^6 cells with approximately […] of [^18F]DK222 in the presence, or absence, of 1 μM of DK222 or 60 nM mAbs for 30 min at 4° C. After incubation, cells were washed three times with ice cold PBS containing 0.1% Tween20 and counted on an automated gamma counter (1282 Compugamma CS, Pharmacia/LKBNuclear, Inc., Gaithersburg, Md.). […] All cell radioactivity uptake studies were performed in quadruplicate for each cell line and repeated three times.

A375 melanoma xenografts = experiment: aPD-1 mAb dosing study, [^18F]DK222 uptake in A375 tumors; format: in vivo; conditions: huPBMC mice, single dose aPD-1 mAb 12 mg/kg, one week
Procedure: A humanized mouse model was used to quantify the differences in tumor PD-L1 levels as a measure of adaptive immune response to treatment with different aPD-1 mAbs. NSG mice humanized with PBMCs (huPBMC) bearing A375 melanoma xenografts were treated with a single dose of aPD-1 mAbs (12 mg/kg). Following one week of treatment, tumor PD-L1 levels were measured by [^18F]DK222-PET and by ex vivo counting 24 hours later (FIG. 4A). As controls, tumor-bearing huPBMC mice treated with saline and NSG mice treated with Pembrolizumab and Nivolumab were included.
1.3.14 aPD-1 mAb dosing studies. huPBMC mice acquired from JAX labs were implanted subcutaneously with 2×10^6 A375 cells in the rostral end. Seven days after cell inoculation (average tumor volume=80±15 mm^3), mice were randomized and treated with a single 12 mg/kg dose of Nivolumab or Pembrolizumab injected intravenously (n=9/group). huPBMC mice treated with saline (n=4-5/group). or NSG mice treated with 12 mg/kg dose of Nivolumab or Pembrolizumab were used as controls. Seven days following treatment, [^18F]DK222 PET scans were acquired on at least 3-5 mice per group. […]
1.3.15 Flow cytometry analysis. […] Cells were counted and 1×10^6 cells were resuspended in 100 μL Live/Dead aqua solution (ThermoFisher #L34965, 2 μL reconstituted with 2 mL PBS) in a 96 well plate. […]

Chain of PD-L1 (Q9NZQ7 19-290): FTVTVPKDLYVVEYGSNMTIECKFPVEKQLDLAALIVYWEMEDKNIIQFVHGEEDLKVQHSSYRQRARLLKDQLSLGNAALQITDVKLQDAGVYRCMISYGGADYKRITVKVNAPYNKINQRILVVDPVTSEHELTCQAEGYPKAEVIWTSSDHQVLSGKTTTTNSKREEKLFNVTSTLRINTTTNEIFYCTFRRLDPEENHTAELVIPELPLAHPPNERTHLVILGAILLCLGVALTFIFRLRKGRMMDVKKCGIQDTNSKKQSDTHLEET
Chain of PD-L1 binding to PD-1 (Q9NZQ7 19-238 limits assumed): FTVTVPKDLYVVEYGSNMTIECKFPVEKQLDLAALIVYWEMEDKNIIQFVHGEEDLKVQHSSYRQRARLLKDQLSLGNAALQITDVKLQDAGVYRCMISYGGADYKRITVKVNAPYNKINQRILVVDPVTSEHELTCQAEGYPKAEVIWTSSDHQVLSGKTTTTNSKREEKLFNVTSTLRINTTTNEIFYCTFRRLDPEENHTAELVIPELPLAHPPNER

In the case of `CCCC[C@H]1C(=O)N(C)[C@@H](CCCC)C(=O)N[C@@H](CCCCNC(=S)Nc2ccc(CN3CCN(CC(=O)O)CCN(CC(=O)O)CC3)cc2)C(=O)N[C@H](C(=O)NCC(N)=O)CSCC(=O)N[C@@H](Cc2ccc(O)cc2)C(=O)N(C)[C@@H](C)C(=O)N[C@@H](CC(N)=O)C(=O)N2CCC[C@H]2C(=O)N[C@@H](Cc2cnc[nH]2)C(=O)N[C@@H](CCC(=O)O)C(=O)N2C[C@H](O)C[C@H]2C(=O)N[C@@H](Cc2c[nH]c3ccccc23)C(=O)N[C@@H](CO)C(=O)N[C@@H](Cc2cn(CC(=O)O)c3ccccc23)C(=O)N1C` [DK222] ({CH2CO}-Y[NMeA]NPHE[Hyp]WS[Trp(1-CH2COOH)][NMeNle][NMeNle]K(X1)CG-NH2; thioether N-14), the pIC50 (PD-L1 binding to PD-1) was 7.55 and the “inhibit PD1:PD-L1 interaction” value (PD-L1 binding to PD-1; protein-based assay) was “at nanomolar concentrations”.
For `CCCC[C@H]1C(=O)N(C)[C@@H](CCCC)C(=O)N[C@@H](CCCCNC(=O)c2ccc([18F])nc2)C(=O)N[C@H](C(=O)NCC(N)=O)CSCC(=O)N[C@@H](Cc2ccc(O)cc2)C(=O)N(C)[C@@H](C)C(=O)N[C@@H](CC(N)=O)C(=O)N2CCC[C@H]2C(=O)N[C@@H](Cc2cnc[nH]2)C(=O)N[C@@H](CCC(=O)O)C(=O)N2C[C@H](O)C[C@H]2C(=O)N[C@@H](Cc2c[nH]c3ccccc23)C(=O)N[C@@H](CO)C(=O)N[C@@H](Cc2cn(CC(=O)O)c3ccccc23)C(=O)N1C` [[^18F]DK221-Py], the PET image contrast (hPD-L1/CHO xenografts) was “poor image contrast”.
For Atezolizumab: aPD-L1 mAb, isotype IgG1κ, the “reduction in [^18F]DK222 uptake in tumors vs vehicle” value (LOX-IMVI tumors; 0.3 mg/kg single i.v. dose) is listed as 32%, the “reduction in [^18F]DK222 uptake in tumors vs vehicle” value (LOX-IMVI tumors; 20 mg/kg single i.v. dose) is listed as 89% and the t1/2 [1] is listed as 27 days. The pKd (PD-L1) was 9.40.
For Avelumab: aPD-L1 mAb, IgG1λ, the t1/2 [1] is given as 6.1 days.
For Durvalumab: aPD-L1 mAb, the “accessible PD-L1 levels reduced” value (LOX-IMVI tumors; 1 mg/kg mAb, LOX-IMVI tumors, 24 h and 96 h) is given as ≥ 70%, the t1/2 [1] is given as 18 days and the pKd (PD-L1) is given as 10.66.
For “IFNγ: cytokine used to treat melanoma cells to induce PD-L1”, the “increase in PD-L1 levels” value ([2]; A375 cells) was “four-fold”, the “increase in PD-L1 levels” value ([2]; LOX-IMVI cells) was “two” and the “change in PD-L1 levels” value ([2]; MeWo cells) was “No differences”.
For “Nivolumab: aPD-1 mAb [reference compound]”, the “mean LOX-IMVI tumor [^18F]DK222 uptake” value (LOX-IMVI tumors; 1 mg/kg mAb, 24 hours) was “approximately 20 % ID/g” and the “increase in median [^18F]DK222 uptake compared to NSG mice” value (A375 melanoma xenografts) was 148%.
For “Pembrolizumab: aPD-1 mAb [reference compound]”, the “increase in median [^18F]DK222 uptake compared to NSG mice” value (A375 melanoma xenografts) was 85%.
